Measurements as given in patent US7932262B2 (Novartis AG, priority 2006, dated 2011).

Legend:
PDK1 kinase = molecular target: T1, PDK1 kinase (Homo sapiens, UniProt O15530); assay: PDK1 Kinase Alpha Screen Assay; type: biochemical; settings: PDK1 Kinase Alpha Screen Assay; read-out: PDK1 IC50
T1 sequence (O15530 1-556): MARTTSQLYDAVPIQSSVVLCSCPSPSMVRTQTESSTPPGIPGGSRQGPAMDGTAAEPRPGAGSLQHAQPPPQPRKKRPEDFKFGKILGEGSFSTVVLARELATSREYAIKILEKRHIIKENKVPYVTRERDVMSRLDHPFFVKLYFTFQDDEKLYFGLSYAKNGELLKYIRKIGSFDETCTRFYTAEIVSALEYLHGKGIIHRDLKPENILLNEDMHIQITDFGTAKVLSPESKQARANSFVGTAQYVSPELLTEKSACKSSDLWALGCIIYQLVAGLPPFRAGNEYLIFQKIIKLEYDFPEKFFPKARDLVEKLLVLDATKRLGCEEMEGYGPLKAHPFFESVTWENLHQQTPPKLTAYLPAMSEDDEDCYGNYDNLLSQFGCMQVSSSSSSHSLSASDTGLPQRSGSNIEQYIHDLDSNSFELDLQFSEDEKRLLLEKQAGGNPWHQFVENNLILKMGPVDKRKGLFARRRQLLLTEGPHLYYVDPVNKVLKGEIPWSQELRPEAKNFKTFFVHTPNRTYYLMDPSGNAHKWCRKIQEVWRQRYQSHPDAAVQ
Method in brief: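 Detection used AlphaScreen: streptavidin donor and protein A acceptor beads (25 μg/ml each) bridged by a phospho-(Ser/Thr) PKA substrate antibody binding phosphorylated peptide. Reaction: biotin-PDK1-4 peptide (50 nM), ATP (10 uM), PDK1 in pH 7.5 Tris/MgCl2/DTT buffer, 3-18 hours, EDTA-stopped.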

A2780 cells = assay: Cell Proliferation Assay (Cell Titer Glo), A2780; type: cell-based; settings: Homo sapiens; cell proliferation, A2780 cells; read-out: CPEC50 A2780
Method in brief: (§1)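 Following a 3-day compound exposure (37° C., 5% CO2) of A2780 or PC3MM cells plated at 1000 per well, viability was measured by Cell Titer Glo luminescence in fresh medium, read 10 min after reagent addition.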

PC3MM cells = assay: Cell Proliferation Assay (Cell Titer Glo), PC3MM; type: cell-based; settings: cell proliferation, PC3MM cells; read-out: CPEC50 PC3MM
Method in brief: as §1

IC50 (PDK1 kinase) [µM] | EC50 (A2780 cells) [µM] | EC50 (PC3MM cells) [µM] | Compound
< 5 | < 5 | < 5 | NS(=O)(=O)c1ccc(Nc2ncc3cccc(-c4ccnc(NCCN5CCCC5)c4)c3n2)cc1 [Compound 747, 4-(8-(2-(2-(pyrroIidin-1-yl)ethylamino)pyridin-4-yl)quinazolin-2-ylamino)benzenesulfonamide]
< 5 | < 5 | < 5 | NS(=O)(=O)c1ccc(Nc2ncc3cccc(-c4cnoc4)c3n2)cc1 [Compound 748, 4-(8-(isoxazol-4-yl)quinazolin-2-ylamino)benzenesulfonamide]
< 5 | < 5 | < 5 | NS(=O)(=O)c1ccc(Nc2ncc3cccc(-c4cn[nH]c4)c3n2)cc1 [Compound 751, 4-(8-(1H-pyrazol-yl)quinazolin-2-ylamino)benzenesulfonamide]
< 5 | < 5 | < 5 | NS(=O)(=O)c1ccc(Nc2ncc3cccc(-c4ccnc(N5CCOCC5)c4)c3n2)cc1 [Compound 752, 4-(8-(2-morpholinopyridin-4-yl)quinazolin-2-ylamino)benzenesulfonamide]
< 5 | < 5 | < 5 | CN1CCN(c2cc(-c3cccc4cnc(Nc5ccc(S(N)(=O)=O)cc5)nc34)ccn2)CC1 [Compound 753, 4-(8-(2-(4-methylpiperazin-1-yl)pyridin-4-yl)quinazolin-2-ylamino)benzenesulfonamide]
< 5 | < 5 | < 5 | NS(=O)(=O)c1ccc(Nc2ncc3cccc(-c4ccnc(N5CCS(=O)(=O)CC5)c4)c3n2)cc1 [Compound 754]
< 5 | < 5 | < 5 | NS(=O)(=O)c1ccc(Nc2ncc3cccc(-c4ccnc(N5CCNC(=O)C5)c4)c3n2)cc1 [Compound 755, 4-(8-(2-(3-oxopiperazin-1-yl)pyridin-4-yl)quinazolin-2-ylamino)benzenesulfonamide]
< 5 | 5 to 10 | < 5 | Nc1cc(-c2cccc3cnc(Nc4ccc(S(N)(=O)=O)cc4)nc23)ccn1 [Compound 756, 4-(8-(2-aminopyridin-4-yl)quinazolin-2-ylamino)benzenesulfonamide]
< 5 | < 5 | < 5 | NS(=O)(=O)c1ccc(Nc2ncc3cccc(-c4ccccc4)c3n2)cc1 [Compound 757, 4-(8-phenylquinazolin-2-ylamino)benzenesulfonamide]
< 5 | 5 to 10 | < 5 | NC(=O)c1ccc(-c2ccc3cnc(Nc4ccc(S(N)(=O)=O)cc4)nc3c2)cc1F [Compound 759, 2-fluoro-4-(2-(4-sulfamoylphenylamino)quinazolin-7-yl)benzamide]
< 5 | 5 to 10 | < 5 | NS(=O)(=O)c1ccc(Nc2ncc3cccc(C(=O)N4CCCC4)c3n2)cc1 [Compound 760, 4-(8-(pyrrolidine-1-carbonyl)quinazolin-2-ylamino)benzenesulfonamide]
< 5 | < 5 | 5 to 10 | COCCNC(=O)c1cccc2cnc(Nc3ccc(S(N)(=O)=O)cc3)nc12 [Compound 761, N-(2-methoxyethyl)-2-(4-sulfamoylphenylamino)quinazoline-8-carboxamide]
< 5 | < 5 | 5 to 10 | NS(=O)(=O)c1ccc(Nc2ncc3cccc(C(=O)NCCN4CCCC4)c3n2)cc1 [Compound 762, N-(2-(pyrrolidin-1-yl)ethyl)-2-(4-sulfamoylphenylamino)quinazoline-8-carboxamide]
10 to 25 | 5 to 10 | 10 to 25 | COCCN1CCN(C(=O)c2ccc3cnc(Nc4ccc(S(N)(=O)=O)cc4)nc3c2)CC1 [Compound 764, 4-(7-(4-(2-methoxyethyl)piperazine-1-carbonyl)quinazolin-2-ylamino)benzenesulfonamide]
< 5 | < 5 | < 5 | COc1cc(-c2cccc3cnc(Nc4ccc(S(N)(=O)=O)cc4)nc23)c(Cl)cn1 [Compound 765, 4-(8-(5-chloro-2-methoxypyridin-4-yl)quinazolin-2-ylamino)benzenesulfonamide]
< 5 | 5 to 10 | 10 to 25 | CC(C)N1CCN(C(=O)c2ccc3cnc(Nc4ccc(S(N)(=O)=O)cc4)nc3c2)CC1 [Compound 766, 4-(7-(4-isopropylpiperazine-1-carbonyl)quinazolin-2-ylamino)benzenesulfonamide]

IC50 (PDK1 kinase) [µM] | EC50 (A2780 cells) [µM] | EC50 (PC3MM cells) [µM] | Compound
< 5 | 5 to 10 | < 5 | CN1CCC(NC(=O)c2ccc3cnc(Nc4ccc(S(N)(=O)=O)cc4)nc3c2)CC1 [Compound 767, N-(1-methylpiperidin-4-yl)-2-(4-sulfamoylphenylamino)quinazoline-7-carboxamide]
5 to 10 | 5 to 10 | 5 to 10 | NS(=O)(=O)c1ccc(Nc2ncc3cccc(C(=O)N4CCOCC4)c3n2)cc1 [Compound 768, 4-(8-(morpholine-4-cartbonyl)quinazolin-2-ylamino)benzenesulfonamide]
< 5 | 5 to 10 | < 5 | CN1CCN(C(=O)c2cccc3cnc(Nc4ccc(S(N)(=O)=O)cc4)nc23)CC1 [Compound 769, 4-(8-(4-methylpiperazine-1-carbonyl)quinazolin-2-ylamino)benzenesulfonamide]
10 to 25 | 5 to 10 | 10 to 25 | NS(=O)(=O)c1ccc(Nc2ncc3cccc(C(=O)N4CCS(=O)(=O)CC4)c3n2)cc1 [Compound 770]
< 5 | < 5 | < 5 | O=S(=O)(c1cccc(Nc2ncc3cccc(OC4CCNCC4)c3n2)c1)N1CCOCC1 [Compound 773, N-(3-(morpholinosulfonyl)phenyl)-8-(piperidin-4-yloxy)quinazolin-2-amine]
< 5 | < 5 | < 5 | CC(C)N1CCC(Oc2cccc3cnc(Nc4cccc(S(=O)(=O)N5CCOCC5)c4)nc23)CC1 [Compound 774, 8-(1-isopropylpiperidin-4-yloxy)-N-(3-(morpholinosulfonyl)phenyl)quinazolin-2-amine]
< 5 | 5 to 10 | < 5 | CN1CCN(S(=O)(=O)c2cccc(Nc3ncc4cccc(OC5CCNCC5)c4n3)c2)CC1 [Compound 775, N-(3-(4-methylpiperazin-1-ylsulfonyl)phenyl)-8-(piperidin-4-yloxy)quinazolin-2-amine]
< 5 | < 5 | < 5 | CC(C)NS(=O)(=O)c1cccc(Nc2ncc3cccc(OC4CCNCC4)c3n2)c1 [Compound 776, N-isopropyl-3-(8-(piperidin-4-yloxy)quinazolin-2-ylamino)benzenesulfonamide]
< 5 | 5 to 10 | < 5 | COCCNS(=O)(=O)c1cccc(Nc2ncc3cccc(OC4CCNCC4)c3n2)c1 [Compound 777, N-(2-methoxyethyl)-3-(8-(piperidin-4-yloxy)quinazolin-2-ylamino)benzenesulfonamide]
< 5 | < 5 | < 5 | CN1CCN(S(=O)(=O)c2ccc(Nc3ncc4cccc(OC5CCNCC5)c4n3)cc2)CC1 [Compound 778, N-(4-(4-methylpiperazin-1-ylsulfonyl)phenyl)-8-(piperidin-4-yloxy)quinazolin-2-amine]
< 5 | 5 to 10 | < 5 | NC(=O)c1cccc(-c2ccc3cnc(Nc4ccc(S(N)(=O)=O)cc4)nc3c2)c1 [Compound 782]
< 5 | 5 to 10 | < 5 | NC(=O)c1ccc(-c2ccc3cnc(Nc4ccc(S(N)(=O)=O)cc4)nc3c2)cc1 [Compound 783, 4-(2-(4-sulfamoylphenylamino)quinazolin-7-yl)benzamide]
< 5 | 5 to 10 | < 5 | NS(=O)(=O)c1ccc(Nc2ncc3ccc(-c4cccc(S(N)(=O)=O)c4)cc3n2)cc1 [Compound 786, 3-(2-(4-sulfamoylphenylamino)quinazolin-7-yl)benzenesulfonamide]
< 5 | < 5 | < 5 | Nc1ccc(-c2ccc3cnc(Nc4ccc(S(N)(=O)=O)cc4)nc3c2)cn1 [Compound 789, 4-(7-(6-aminopyridin-3-yl)quinazolin-2-ylamino)benzenesulfonamide]
< 5 | 5 to 10 | < 5 | NC(=O)c1ccc(-c2ccc3cnc(Nc4ccc(S(N)(=O)=O)cc4)nc3c2)cn1 [Compound 790, 5-(2-(4-sulfamoylphenylamino)quinazolin-7-yl)picolinamide]
